Measured values reported in PMC3793977, “High-Throughput Screening (HTS) and Hit Validation to Identify Small Molecule Inhibitors with Activity against NS3/4A proteases from Multiple Hepatitis C Virus Genotypes” (PLoS ONE, 2013).
pIC50: −log10 of the molar value.

Target: NS3/4A protease genotype 4d (Hepatitis C virus subtype 4d, UniProt Q1ZZ56)
Test: Inhibition assay with NS3/4A from genotype 4d
Assay type: biochemical
Protocol: The inhibitory activity of the final hit compounds from HTS were tested against three other HCV genotypes (1a, 2a, and 4d), along with a control (genotype 1b) and five NS3 drug-resistant mutants. Eight full-length NS3 mutants (V36M, R155K, A156T, A156S, 156V, V36A, T54A, and R155T) were generated by mutagenesis and purified, and the three HCV NS3/4A protease genotypes were purchased from Anaspec. Unfortunately the enzyme activities of the three mutants V36A, T54A, and R155T were much less than that of the rest of the mutants and were insufficient for testing, therefore mutant studies were done with the five active mutants. Continuous kinetic assays were performed against all hit compounds in the same way as the wild-type NS3/4A. As a control, full-length NS3/4A (genotype 1b) was tested under the same conditions for direct comparison for each plate.

With `Cc1cc(NC(=O)Cc2csc(NS(=O)(=O)c3ccccc3)n2)ccc1Br` [Compound 12] as the compound, how does the pIC50 read?
Its pIC50 is greater than 4.70.
